According to patent US20060058329A1, “Pyrazole inhibitors of the transforming growth factor” (priority 2003, published 2006):

Experiments:
[1] = test system: TGF-β signalling (PAI-1 promoter-luciferase in HepG2 cells); assay: Cellular transcriptional assay (PAI-1 promoter luciferase reporter, TGF-β stimulated); details: for IC50: Homo sapiens, HepG2, read-out: TGF-β cellular activity (IC50)
Experimental: Assay 1 (Cellular Transcriptional Assay)
The assay was performed in HepG2 cells stably transfected with the PAI-1 promoter (known to be a strong TGF-β responsive promoter) linked to a luciferase (firefly) reporter gene. The compounds were selected on their ability to inhibit luciferase activity in cells exposed to TGF-β. In addition, cells were transfected with a second luciferase (Renilla) gene which was not driven by a TGF-β responsive promoter and was used as a toxicity control.
96 well microplates were seeded, using a multidrop apparatus, with the stably transfected cell line at a concentration of 35000 cells per well in 200 μl of serum-containing medium. These plates were placed in a cell incubator.
18 to 24 hours later (Day 2), cell-incubation procedure was launched. Cells were incubated with TGF-β and a candidate compound at concentrations in the range 50 nM to 10 μM (final concentration of DMSO 1%). The final concentration of TGF-β (rhTGFβ-1) used in the test was 1 ng/mL. […] The final volume of the test reaction was 150 μl. Each well contained only one candidate compound and its effect on the PAI-1 promoter was monitored.
Columns 11 and 12 were employed as controls. Column 11 contained 8 wells in which the cells were incubated in the presence of TGF-β, without a candidate compound. Column 11 was used to determine the ‘reference TGF-β induced firefly luciferase value’ against which values measured in the test wells (to quantify inhibitory activity) were compared. In wells A12 to D12, cells were grown in medium without TGF-β. […]
12 to 18 hours later (day 3), the luciferase quantification procedure was launched. […] Following agitation (15 to 30 mins), luciferase activities of the plates were read in a dual-injector luminometer (BMG lumistar). For this purpose, 50 μl of luciferase assay reagent and 50 μL of ‘Stop & Glo’ buffer were injected sequentially to quantify the activities of both luciferases. […] For each of the compounds tested, a concentration response curve was constructed from which an IC50 value was determined graphically.

[2] = target: T1, recombinant GST-ALK5 (residues 198-503) (Homo sapiens, UniProt P36897); assay: Alk5 fluorescence polarization assay; assay type: binding; details: rhodamine green-labelled ligand 1 nM, ALK5 10 nM, read-out: ALK5 receptor modulator activity (IC50)
T1 construct: recombinant GST-ALK5 (residues 198-503)
T1 sequence (P36897 198-503): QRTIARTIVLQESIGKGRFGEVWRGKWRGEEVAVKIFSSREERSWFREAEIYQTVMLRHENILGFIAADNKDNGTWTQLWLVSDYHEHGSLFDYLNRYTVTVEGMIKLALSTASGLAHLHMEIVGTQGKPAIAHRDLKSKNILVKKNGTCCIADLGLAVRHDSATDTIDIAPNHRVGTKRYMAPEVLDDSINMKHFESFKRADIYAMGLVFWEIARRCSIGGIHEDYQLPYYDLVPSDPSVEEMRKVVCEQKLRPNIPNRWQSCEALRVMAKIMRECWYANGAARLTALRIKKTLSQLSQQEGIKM
Experimental: Assay 2 (Alk5 Fluorescence Polarization Assay)
Kinase inhibitor compounds conjugated to fluorophores, can be used as fluorescent ligands to monitor ATP competitive binding of other compounds to a given kinase. The increase in depolarization of plane polarized light, caused by release of the bound ligand into solution, is measured as a polarization/anisotropy value. This protocol details the use of a rhodamine green-labelled ligand for assays using recombinant GST-ALK5 (residues 198-503).
Assay buffer components: 62.5 mM Hepes pH 7.5 (Sigma H-4034), 1 mM DTT (Sigma D-0632), 12.5 mM MgCl2 (Sigma M-9272), 1.25 mM CHAPS (Sigma C-3023). […]
ALK5 was added to assay buffer containing the above components and 1 nM of the rhodamine green-labelled ligand so that the final ALK5 concentration was 10 nM based on active site titration of the enzyme. […] The plates were read immediately on a LJL Acquest fluorescence reader (Molecular Devices, serial number AQ1048) with excitation, emission, and dichroic filters of 485 nm, 530 nm, and 505 nm, respectively. The fluorescence polarization for each well was calculated by the Acquest reader and then imported into curve fitting software for construction of concentration response curves. The normalized response was determined relative to the high controls (1 μl DMSO in column 12, rows A-D) and the low controls (1 μl of control compound in column 12, rows E-H). […]

| SMILES | melting point [°C] | IC50 [1] [µM] | IC50 [2] [µM] | firefly and renilla luciferase activities, relative to those obtained in column 11 (TGF-β only) ([1]; 500 μM CPO in the presence of TGF-β, toxicity control) |
| --- | --- | --- | --- | --- |
| O=C1C=CCC1 [CPO, Cyclopentenone, reference compound] |  |  |  | around 50% |
| Cc1cccc(-c2n[nH]cc2-c2ccnc(-c3ccc(OCc4cn(C)cn4)cc3)c2)n1 [Example 1, 2-{4-[(1-methyl-1H-imidazol-4-yl)methoxy]phenyl}-4-[3-(6-methylpyridin-2-yl)-1H-pyrazol-4-yl]pyridine] |  | 0.034 | 0.005 |  |

Further lines, with some results ahead:

| melting point [°C] | IC50 [1] [µM] | IC50 [2] [µM] | SMILES | firefly and renilla luciferase activities, relative to those obtained in column 11 (TGF-β only) ([1]; 500 μM CPO in the presence of TGF-β, toxicity control) |
| --- | --- | --- | --- | --- |
| 96 | 0.038 | 0.017 | Cc1cccc(-c2cn[nH]c2-c2ccnc(-c3ccc(OCCN4CCCC4)cc3)c2)n1 [Example 22, 3-[2-(4-(2-(pyrolidin-1-yl)ethoxy)phenyl)pyridin-4-yl]-4-[6-methylpyridin-2-yl]-1H-pyrazole] |  |
| 170 |  |  | Cc1cccc(-c2cn[nH]c2-c2ccnc(-c3ccc(OCC(=O)N4CCOCC4)cc3)c2)n1 [Example 23, 3-[2-(4-((morpholin-4-yl)carbonylmethyloxy)phenyl)pyridin-4-yl]-4-[6-methylpyridin-2-yl]-1H-pyrazole] |  |
| 126 |  |  | CCN1CCN(C(=O)c2ccc(-c3cc(-c4[nH]ncc4-c4cccc(C)n4)ccn3)cc2)CC1 [Example 19, 3-[2-(4-((1-ethyl-piperazin-4-yl)carbonyl)phenyl)pyridin-4-yl]-4-[6-methylpyridin-2-yl]-1H-pyrazole] |  |
